Activity calls are given as the source filed them.
Assays:
[1] = molecular target: Protein disulfide-isomerase (Homo sapiens, UniProt P07237); assay: inhibition of PDI-driven insulin aggregation – biochemical, turbidity, absorbance, cherry-picked samples, dose response (AID 602350); format: functional
Orexin receptor type 2 [2] = molecular target: T1, Orexin receptor type 2 (Homo sapiens, UniProt O43614); assay: Counterscreen assay for antagonists of the orexin 1 receptor (OX1R; HCRTR1): Homogeneous Time Resolved Fluorescence (HTRF)-based cell-based dose response assay for antagonists of the orexin 2 receptor (OX2R; HCRTR2), run by assay provider.; format: functional
T1 sequence (O43614 whole entry): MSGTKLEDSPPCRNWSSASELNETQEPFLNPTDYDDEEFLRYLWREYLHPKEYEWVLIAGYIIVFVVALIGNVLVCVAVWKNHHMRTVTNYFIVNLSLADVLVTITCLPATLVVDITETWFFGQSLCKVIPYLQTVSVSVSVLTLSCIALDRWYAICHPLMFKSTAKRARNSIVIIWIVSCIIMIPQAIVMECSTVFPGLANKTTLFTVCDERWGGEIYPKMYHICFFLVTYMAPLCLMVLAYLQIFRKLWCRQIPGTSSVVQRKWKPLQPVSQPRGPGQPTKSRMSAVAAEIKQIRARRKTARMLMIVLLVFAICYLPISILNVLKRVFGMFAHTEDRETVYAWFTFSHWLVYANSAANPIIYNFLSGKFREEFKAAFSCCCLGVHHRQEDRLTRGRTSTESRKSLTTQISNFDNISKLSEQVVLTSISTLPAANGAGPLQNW

[3] = molecular target: Peroxisome proliferator-activated receptor gamma/Nuclear receptor corepressor 2 (Homo sapiens, UniProt P37231+Q9Y618); assay: Counterscreen for NR2E3 inverse agonists: TR-FRET-based biochemical high throughput dose response assay to identify inverse agonists of the interaction between peroxisome proliferator-activated receptor gamma (PPARg) and nuclear receptor co-repressor 2 (NCOR2).; format: functional
Chain of Peroxisome proliferator-activated receptor gamma/Nuclear receptor corepressor 2 (P37231 whole entry): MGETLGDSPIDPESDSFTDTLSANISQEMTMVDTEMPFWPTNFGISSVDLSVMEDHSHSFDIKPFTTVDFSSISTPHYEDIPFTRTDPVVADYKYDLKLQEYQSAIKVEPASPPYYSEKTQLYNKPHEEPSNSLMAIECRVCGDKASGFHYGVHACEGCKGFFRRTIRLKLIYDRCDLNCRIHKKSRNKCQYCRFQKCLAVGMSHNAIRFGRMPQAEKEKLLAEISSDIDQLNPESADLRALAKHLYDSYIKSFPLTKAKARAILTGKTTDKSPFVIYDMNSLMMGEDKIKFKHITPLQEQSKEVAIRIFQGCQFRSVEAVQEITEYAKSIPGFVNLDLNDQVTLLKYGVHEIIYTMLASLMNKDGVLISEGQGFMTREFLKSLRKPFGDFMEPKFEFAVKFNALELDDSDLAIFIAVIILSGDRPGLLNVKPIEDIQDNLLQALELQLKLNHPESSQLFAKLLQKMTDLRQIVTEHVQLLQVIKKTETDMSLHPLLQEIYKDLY
Chain of Peroxisome proliferator-activated receptor gamma/Nuclear receptor corepressor 2 (Q9Y618 whole entry): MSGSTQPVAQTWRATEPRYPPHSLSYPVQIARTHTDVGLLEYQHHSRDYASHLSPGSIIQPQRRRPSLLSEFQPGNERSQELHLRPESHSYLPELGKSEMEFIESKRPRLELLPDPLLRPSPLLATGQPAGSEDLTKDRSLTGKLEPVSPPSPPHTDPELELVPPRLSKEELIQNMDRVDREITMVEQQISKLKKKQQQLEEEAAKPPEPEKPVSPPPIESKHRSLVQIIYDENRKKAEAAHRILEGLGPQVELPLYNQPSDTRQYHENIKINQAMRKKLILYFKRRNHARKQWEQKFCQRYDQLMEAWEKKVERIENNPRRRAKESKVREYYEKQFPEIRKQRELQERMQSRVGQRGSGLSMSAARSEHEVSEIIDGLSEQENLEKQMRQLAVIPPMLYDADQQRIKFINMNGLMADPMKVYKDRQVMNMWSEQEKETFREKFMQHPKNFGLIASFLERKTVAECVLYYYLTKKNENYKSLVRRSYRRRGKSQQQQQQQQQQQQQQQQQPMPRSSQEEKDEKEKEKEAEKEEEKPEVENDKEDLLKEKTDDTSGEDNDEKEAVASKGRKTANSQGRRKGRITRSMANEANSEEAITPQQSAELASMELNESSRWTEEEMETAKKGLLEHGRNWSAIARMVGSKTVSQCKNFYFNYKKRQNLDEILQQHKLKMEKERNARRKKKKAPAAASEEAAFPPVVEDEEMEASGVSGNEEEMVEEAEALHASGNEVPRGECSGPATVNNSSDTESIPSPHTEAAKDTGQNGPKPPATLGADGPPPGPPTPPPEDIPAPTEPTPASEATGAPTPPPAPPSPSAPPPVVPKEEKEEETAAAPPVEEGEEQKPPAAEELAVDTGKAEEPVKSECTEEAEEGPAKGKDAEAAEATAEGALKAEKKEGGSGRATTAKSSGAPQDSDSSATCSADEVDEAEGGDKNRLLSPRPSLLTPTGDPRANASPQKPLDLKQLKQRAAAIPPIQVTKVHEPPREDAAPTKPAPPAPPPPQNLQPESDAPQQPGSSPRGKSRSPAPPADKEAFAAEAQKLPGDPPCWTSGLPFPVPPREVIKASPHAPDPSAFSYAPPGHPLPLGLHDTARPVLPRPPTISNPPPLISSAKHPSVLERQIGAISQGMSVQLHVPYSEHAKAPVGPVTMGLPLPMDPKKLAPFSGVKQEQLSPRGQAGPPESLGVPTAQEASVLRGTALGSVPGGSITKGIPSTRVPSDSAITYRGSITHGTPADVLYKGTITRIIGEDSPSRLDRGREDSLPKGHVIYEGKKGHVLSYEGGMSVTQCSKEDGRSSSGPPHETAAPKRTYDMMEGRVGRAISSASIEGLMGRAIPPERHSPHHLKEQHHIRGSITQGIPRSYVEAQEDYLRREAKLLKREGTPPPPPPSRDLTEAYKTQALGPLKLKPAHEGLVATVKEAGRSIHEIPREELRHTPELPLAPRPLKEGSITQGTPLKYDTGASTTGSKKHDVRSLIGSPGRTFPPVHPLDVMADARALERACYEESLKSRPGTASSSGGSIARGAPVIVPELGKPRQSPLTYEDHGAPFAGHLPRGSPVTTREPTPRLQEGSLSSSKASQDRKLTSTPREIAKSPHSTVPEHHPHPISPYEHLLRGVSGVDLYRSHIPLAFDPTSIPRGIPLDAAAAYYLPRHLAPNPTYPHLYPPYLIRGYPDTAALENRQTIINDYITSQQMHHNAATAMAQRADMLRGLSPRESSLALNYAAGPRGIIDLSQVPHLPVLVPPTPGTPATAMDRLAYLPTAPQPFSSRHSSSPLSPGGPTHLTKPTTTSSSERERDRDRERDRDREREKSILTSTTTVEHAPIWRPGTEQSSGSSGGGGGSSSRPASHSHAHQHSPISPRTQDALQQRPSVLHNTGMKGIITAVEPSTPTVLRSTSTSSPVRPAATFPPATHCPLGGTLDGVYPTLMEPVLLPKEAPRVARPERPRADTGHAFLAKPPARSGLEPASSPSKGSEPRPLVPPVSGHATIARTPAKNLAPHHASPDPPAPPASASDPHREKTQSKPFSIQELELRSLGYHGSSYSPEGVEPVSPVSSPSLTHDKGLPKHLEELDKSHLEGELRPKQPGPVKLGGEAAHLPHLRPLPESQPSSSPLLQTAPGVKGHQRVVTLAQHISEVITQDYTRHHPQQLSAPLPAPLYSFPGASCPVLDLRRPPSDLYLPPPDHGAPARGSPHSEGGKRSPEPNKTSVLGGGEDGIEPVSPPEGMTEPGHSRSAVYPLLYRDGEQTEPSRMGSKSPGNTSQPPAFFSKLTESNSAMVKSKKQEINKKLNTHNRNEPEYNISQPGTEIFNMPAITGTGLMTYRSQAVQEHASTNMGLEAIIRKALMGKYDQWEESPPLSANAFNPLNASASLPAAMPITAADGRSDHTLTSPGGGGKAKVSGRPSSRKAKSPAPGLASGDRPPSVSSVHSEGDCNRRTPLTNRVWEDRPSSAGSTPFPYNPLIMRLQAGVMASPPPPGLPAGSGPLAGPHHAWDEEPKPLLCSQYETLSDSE

[4] = molecular target: T2, Orexin/Hypocretin receptor type 1 (Homo sapiens, UniProt O43613); assay: (§1) Fluorescence-based cell-based high throughput dose response assay for antagonists of the orexin 1 receptor (OX1R; HCRTR1). [Related pubchem assays (depositor defined):AID434989, AID435008, AID463079, AID485270, AID492963, AID492964, AID492965, AID493232, AID504717, AID504718]; format: functional
T2 sequence (O43613 whole entry): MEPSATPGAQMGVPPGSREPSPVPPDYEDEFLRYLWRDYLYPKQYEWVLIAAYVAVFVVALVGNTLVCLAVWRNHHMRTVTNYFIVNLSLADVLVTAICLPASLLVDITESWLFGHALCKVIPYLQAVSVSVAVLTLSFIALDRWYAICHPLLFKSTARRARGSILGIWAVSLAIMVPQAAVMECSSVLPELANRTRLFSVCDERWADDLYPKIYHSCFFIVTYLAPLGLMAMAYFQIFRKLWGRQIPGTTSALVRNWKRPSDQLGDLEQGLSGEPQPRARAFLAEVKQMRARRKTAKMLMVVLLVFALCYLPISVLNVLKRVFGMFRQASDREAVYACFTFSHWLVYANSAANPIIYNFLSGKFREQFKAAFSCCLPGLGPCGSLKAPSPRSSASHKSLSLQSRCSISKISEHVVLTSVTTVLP

CHO-K1 = assay: (§2) Counterscreen for antagonists of the orexin 1 receptor (OX1R; HCRTR1): Homogeneous time resolved fluorescence (HTRF)-based cell-based dose response assay to identify antagonists of the parental CHO-K1 cell line. [Related pubchem assays (depositor defined):AID434989, AID435008, AID463079, AID485270, AID492963, AID492964, AID492965, AID493232, AID504699, AID504701]; format: functional; conditions: Cricetulus griseus
[5] = molecular target: Photoreceptor-specific nuclear receptor (Homo sapiens, UniProt Q9Y5X4); assay: ligands suppressing NR2E3 nuclear receptor activity – biochemical, TR-FRET, dose response (AID 463256); format: functional
Chain of Photoreceptor-specific nuclear receptor (Q9Y5X4 whole entry): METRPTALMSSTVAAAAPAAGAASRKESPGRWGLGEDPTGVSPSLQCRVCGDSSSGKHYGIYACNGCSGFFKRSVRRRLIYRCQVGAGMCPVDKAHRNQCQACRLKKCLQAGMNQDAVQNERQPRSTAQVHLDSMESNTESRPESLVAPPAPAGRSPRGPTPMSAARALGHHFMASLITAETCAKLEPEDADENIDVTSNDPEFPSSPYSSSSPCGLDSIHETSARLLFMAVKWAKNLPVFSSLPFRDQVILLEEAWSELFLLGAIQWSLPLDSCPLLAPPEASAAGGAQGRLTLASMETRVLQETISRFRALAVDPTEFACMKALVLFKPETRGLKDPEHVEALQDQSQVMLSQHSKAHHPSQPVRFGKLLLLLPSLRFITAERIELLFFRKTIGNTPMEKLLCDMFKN

[6] = as §2, with “Fluorescence-based” for “Homogeneous time resolved fluorescence (HTRF)-based”, “cell-based high throughput” for “cell-based”, “CHO” for “CHO-K1”; format: functional
[7] = molecular target: T2, Orexin/Hypocretin receptor type 1; assay: as §1, with “Homogeneous Time Resolved Fluorescence (HTRF)-based” for “Fluorescence-based”; format: functional
Orexin receptor type 2 [8] = molecular target: T1, Orexin receptor type 2; assay: Counterscreen assay for antagonists of the orexin 1 receptor (OX1R; HCRTR1): Fluorescence-based cell-based dose response assay for antagonists of the orexin 2 receptor (OX2R; HCRTR2), run by assay provider.; format: functional
BJ [9] = assay: BJ-TERT fibroblast viability loss – cell-based, RAS-independent, luminescence, dose response (AID 1933); format: functional; conditions: Homo sapiens
[10] = HEK-293T viability loss after treatment – luminescence, T-cell screen hits, cytotoxicity control for TCR NF-kB inhibitor project, dose response (AID 489026); format: functional, cell-based;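 note: cells exposed to compound about 14 hours before the viability readout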
Insulin-degrading enzyme [11] = molecular target: T3, Insulin-degrading enzyme (Homo sapiens, UniProt P14735); assay: cellular IDE activation of Abeta substrate cleavage – fluorescence polarization, HEK cells, dose response (AID 588439); format: functional, cell-based
T3 sequence (P14735 whole entry): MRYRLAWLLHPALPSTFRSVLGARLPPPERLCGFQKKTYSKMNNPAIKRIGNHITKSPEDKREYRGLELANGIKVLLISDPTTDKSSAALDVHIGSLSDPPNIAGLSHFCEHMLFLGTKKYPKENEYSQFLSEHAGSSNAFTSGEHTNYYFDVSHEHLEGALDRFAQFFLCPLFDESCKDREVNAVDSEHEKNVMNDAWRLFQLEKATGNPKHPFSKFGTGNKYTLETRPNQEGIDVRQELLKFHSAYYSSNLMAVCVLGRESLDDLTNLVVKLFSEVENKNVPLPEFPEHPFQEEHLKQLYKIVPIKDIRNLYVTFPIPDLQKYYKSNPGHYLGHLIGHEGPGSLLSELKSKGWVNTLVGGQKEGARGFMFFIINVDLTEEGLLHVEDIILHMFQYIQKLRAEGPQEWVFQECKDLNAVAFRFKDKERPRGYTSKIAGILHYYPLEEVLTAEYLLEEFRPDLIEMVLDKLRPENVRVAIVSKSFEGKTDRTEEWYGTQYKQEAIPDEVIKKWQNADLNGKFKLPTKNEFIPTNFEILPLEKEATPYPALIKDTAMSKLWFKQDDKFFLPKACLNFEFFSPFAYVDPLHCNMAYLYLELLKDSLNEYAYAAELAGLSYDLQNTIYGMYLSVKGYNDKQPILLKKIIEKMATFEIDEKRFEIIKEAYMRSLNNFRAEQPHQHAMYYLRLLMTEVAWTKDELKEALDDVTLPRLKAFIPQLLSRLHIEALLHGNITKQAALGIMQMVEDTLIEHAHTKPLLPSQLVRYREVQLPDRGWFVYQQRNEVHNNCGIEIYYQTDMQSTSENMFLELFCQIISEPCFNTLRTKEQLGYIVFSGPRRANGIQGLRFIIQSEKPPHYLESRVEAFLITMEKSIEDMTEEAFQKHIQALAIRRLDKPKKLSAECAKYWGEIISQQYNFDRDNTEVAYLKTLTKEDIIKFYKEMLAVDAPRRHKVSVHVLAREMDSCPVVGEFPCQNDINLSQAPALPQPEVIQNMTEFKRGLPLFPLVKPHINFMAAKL

[12] = test system: Streptococcus sp. 'group A'; assay: Streptococcus pyogenes SK(-)GAS viability under kanamycin – luminescence, BacTiterGlo, confirmation, counter-screen for streptokinase expression inhibitor project, dose response (AID 1900); format: functional, organism-based
HEK293 [13] = assay: membrane integrity loss in HEK cells – cell-based, fluorescence, cytotoxicity control for IDE activator project, dose response (AID 588440); format: functional; conditions: Homo sapiens;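 note: cytotoxicity by LDH release measuring loss of membrane integrity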
Beta-galactosidase = Beta-galactosidase (Escherichia coli, UniProt Q8VNN2); assay: detection-enzyme interference by beta-gal modulators – biochemical, E. coli enzyme, set 3, artefact control for CCR6 antagonist project, dose response (AID 504712); format: functional
[14] = loss of viability in HepG2 cells – cell-based, CellTiter-Glo, cherry-picked, cytotoxicity control for Shn3 inhibitor project, dose response (AID 624134); format: functional
[15] = Luminescence Cell-Based Dose Response HTS to Identify Inhibitors of 5'UTR Stem-Loop Driven Prion Protein mRNA Translation in H4 Neuroglioblastoma Cells. [Related pubchem assays: 1827 (Project Summary), 1813 (Primary HTS)]; format: functional
[16] = DRD fibroblast viability loss – cell-based, non-viral oncogenic, luminescence, dose response (AID 1934); format: functional; conditions: Homo sapiens
[17] = luciferase reporter signal suppression in cells – H4 neuroglioma cells, luminescence, dose response (AID 1990); format: functional, cell-based
[18] = non-specific 3'UTR reporter inhibition in Clone20-Shn3RL – cell-based, Renilla luciferase, cherry-picked, counter-screen for Shn3 inhibitor project, dose response (AID 624133); format: functional
BJ [19] = assay: growth inhibition of engineered Ras-driven BJ cells – cell-based, alamar blue fluorescence, cherrypicked samples, dose response (AID 2631); format: functional; conditions: Homo sapiens;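 note: confirmatory dose-response assay in RAS-dependent BJ fibroblasts engineered with TERT, LT and ST, with cytotoxicity read by fluorescence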
[20] = alpha-synuclein stem-loop luciferase translation blockers – H4 neuroglioma cells, luminescence, confirmation (AID 1988); format: functional, cell-based
BJ [21] = assay: BJ-TERT-LT-ST fibroblast viability loss – cell-based, RAS-independent, luminescence, dose response (AID 1935); format: functional; conditions: Homo sapiens;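 note: BJ fibroblasts immortalized with TERT plus LT and ST oncogenes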
Insulin-degrading enzyme [22] = molecular target: T3, Insulin-degrading enzyme; assay: recombinant IDE activation, cell-free – biochemical, fluorescence polarization, counter-screen for IDE activator project, dose response (AID 588681)
HEK293 [23] = assay: optical interference in Abeta FP readout, dose response, artefact control for IDE activator project, biochemical, fluorescence polarization (AID 588442); format: functional, cell-based; conditions: Homo sapiens
[24] = NIH-3T3 fibroblast cytotoxicity, dose response, cytotoxicity control, cell-based, fluorescence, Alamar Blue, secondary assay (AID 2327); format: functional;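 note: NIH-3T3 mouse fibroblasts cultured with fluconazole at 8 µg/mL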
BJ [25] = assay: cells; format: functional, cell-based; conditions: Homo sapiens
[26] = molecular target: T4, Short transient receptor potential channel 4 (Mus musculus, UniProt Q9QUQ5); assay: calcium entry via TRPC4 opening agents – cell-based, HEK293 TRPC4/mu-opioid, Fluo-4 calcium, dose response (AID 434937); format: functional
T4 sequence (Q9QUQ5 whole entry): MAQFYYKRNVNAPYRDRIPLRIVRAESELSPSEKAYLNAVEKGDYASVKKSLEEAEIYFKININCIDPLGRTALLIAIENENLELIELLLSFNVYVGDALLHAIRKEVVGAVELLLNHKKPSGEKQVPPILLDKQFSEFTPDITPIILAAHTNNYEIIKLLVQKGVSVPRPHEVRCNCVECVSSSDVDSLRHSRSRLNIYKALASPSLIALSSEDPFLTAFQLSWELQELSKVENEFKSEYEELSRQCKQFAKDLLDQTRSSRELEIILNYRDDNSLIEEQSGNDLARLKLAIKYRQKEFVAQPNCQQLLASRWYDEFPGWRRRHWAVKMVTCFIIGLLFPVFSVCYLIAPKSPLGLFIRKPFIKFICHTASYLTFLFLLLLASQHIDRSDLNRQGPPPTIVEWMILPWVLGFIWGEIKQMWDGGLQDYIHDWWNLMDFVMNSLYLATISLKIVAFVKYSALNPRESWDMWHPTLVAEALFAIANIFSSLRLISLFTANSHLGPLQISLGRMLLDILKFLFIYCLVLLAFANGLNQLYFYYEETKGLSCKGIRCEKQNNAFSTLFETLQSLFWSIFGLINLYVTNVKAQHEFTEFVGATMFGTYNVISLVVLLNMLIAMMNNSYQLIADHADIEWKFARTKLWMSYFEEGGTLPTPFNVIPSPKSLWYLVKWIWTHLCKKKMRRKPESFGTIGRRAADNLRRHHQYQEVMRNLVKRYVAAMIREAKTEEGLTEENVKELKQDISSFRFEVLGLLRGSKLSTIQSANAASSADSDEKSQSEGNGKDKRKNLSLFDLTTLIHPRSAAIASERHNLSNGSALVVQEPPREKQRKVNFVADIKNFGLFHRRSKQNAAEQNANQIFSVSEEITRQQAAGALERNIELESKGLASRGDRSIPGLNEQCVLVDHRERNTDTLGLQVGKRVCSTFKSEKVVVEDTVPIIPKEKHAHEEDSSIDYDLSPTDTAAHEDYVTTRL

[27] = reduction of Shn3 3'UTR-driven luciferase in osteoblasts – cell-based, Clone20 osteoblasts, firefly luciferase, cherry-picked, dose response (AID 624132); format: functional;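 note: firefly luciferase luminescence from reporter carrying the Shn3 3'UTR in osteoblasts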
Streptococcus = assay: GAS UMAA2166 growth inhibition – luminescence, BacTiterGlo, counter-screen for streptokinase expression inhibitor project, dose response (AID 1915); format: functional, organism-based;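 note: potency for reduction of bacterial viability or growth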
INS1 = assay: INS-1E survival protection against cytokine death – cell-based, luminescence, retest, dose response (AID 449756); format: functional; conditions: Rattus norvegicus;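 note: cell death triggered by IL-1 beta plus TNF-alpha plus IFN-gamma mixture; protective hits raise ATP signal compared with cytokine alone wells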
[28] = fluconazole-exposed Candida albicans growth modulators – fluorescence, retest, confirmation (AID 2467); format: functional, cell-based

Chain of Protein disulfide-isomerase (P07237 whole entry): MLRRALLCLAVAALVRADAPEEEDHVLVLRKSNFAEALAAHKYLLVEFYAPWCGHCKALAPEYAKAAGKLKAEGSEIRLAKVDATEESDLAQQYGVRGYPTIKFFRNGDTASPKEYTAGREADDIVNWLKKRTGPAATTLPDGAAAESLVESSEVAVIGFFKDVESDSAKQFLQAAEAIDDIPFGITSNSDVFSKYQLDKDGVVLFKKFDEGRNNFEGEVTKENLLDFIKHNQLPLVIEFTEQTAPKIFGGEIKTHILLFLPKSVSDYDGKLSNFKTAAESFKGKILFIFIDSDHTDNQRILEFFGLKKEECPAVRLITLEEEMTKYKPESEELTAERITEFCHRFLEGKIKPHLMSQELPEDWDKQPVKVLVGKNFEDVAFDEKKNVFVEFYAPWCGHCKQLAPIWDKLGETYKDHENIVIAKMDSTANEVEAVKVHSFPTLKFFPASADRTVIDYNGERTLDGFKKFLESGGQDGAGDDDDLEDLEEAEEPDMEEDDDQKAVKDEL

## CN(C)C(=O)CSc1nnc([C@H](Cc2c[nH]c3ccccc23)NC(=O)OC(C)(C)C)o1
[1]
  AC50: 19.5 µM (active)

## Cc1nc2ccc(NC(=O)c3oc4ccc(F)cc4c3C)cc2s1
Orexin receptor type 2 [2]
  IC50: > 50 µM (inactive)
[3]
  IC50: 8.73 µM (active)
[4]
  IC50: 1.76 µM (active)
CHO-K1
  IC50: > 66.2 µM (inactive)
[5]
  IC50: > 39.8 µM (not active)
[6]
  IC50: > 49.7 µM (inactive)
[7]
  IC50: 0.386 µM (active)
Orexin receptor type 2 [8]
  IC50: > 88.8 µM (inactive)

## CNC[C@H](CC1CCCCC1)NC[C@H](Cc1ccccc1)NCCC12CC3CC(CC(C3)C1)C2
BJ [9]
  EC50: 2.64 µM (inconclusive)
[10]
  IC50: 22.8 µM (inactive)
Insulin-degrading enzyme [11]
  EC50: 7.02 µM (active)
[12]
  EC50: 3.27 µM (active)
HEK293 [13]
  IC50: 3.37 µM (active)
Beta-galactosidase
  IC50: > 66.6 µM (inactive)
[14]
  AC50: 4.47 µM (active)
[15]
  EC50: > 120 µM (not active)
[16]
  EC50: 4.21 µM (active)
[17]
  EC50: 5.5 µM (active)
[18]
  AC50: 7.45 µM (active)
BJ [19]
  EC50: 0.509 µM (inconclusive)
[20]
  EC50: > 120 µM (not active)
BJ [21]
  EC50: 2 µM (active)
Insulin-degrading enzyme [22]
  EC50: > 54.7 µM (inactive)
HEK293 [23]
  EC50: > 55.9 µM (inactive)
[24]
  EC50: 136 µM (inconclusive)
BJ [25]
  EC50: 5.14 µM (inconclusive)
[26]
  EC50: 8.41 µM (active)
[27]
  AC50: 5.51 µM (active)
Streptococcus
  EC50: 8.1 µM (active)
INS1
  AC50: 3.77 µM (active)
[28]
  EC50: 3.71 µM (active)
